From patent publication EP2407164A1, “Copper II complexes of phenanthroline and their use in cancer treatment” (Dublin Institute of Technology Intellectual Property Ltd, priority 2010, dated 2012)
Numbered stars: 1 amine (or outer) side, 2 acyl side, 3 side chain; on linkers, the order of the positions; unused ones are H or OH. Bridge positions count the residues as written; N and C are the ends. Square brackets hold non-standard residues; d marks the D form. Peptide text beside a SMILES is read from it. I, II: the chains in the order shown. Actinocin(9to1) = Cc1c2oc3c(C)ccc(C(=O)[*:1])c3nc-2c(C(=O)[*:2])c(N)c1=O; NMeV = CN[CH](C(=O)O)C(C)C; Sar = CNCC(=O)O

Assays:
MCF-7 = test: MTT cytotoxicity assay, complexes 1-6; format: cell-based, Human; details: 24 hr exposure, mean of three independent experiments +/- standard error
Protocol: (§1) Human colon cancer cell line, HT29 (passage 17 to 30, ATCC, USA), was grown in McCoys's 5a medium supplemented with 2mM L-glutamine and fetal bovine serum (FBS) 10% and containing 100U/ ml penicillin and 100µg / ml streptomycin at 37°C in a humidified atmosphere with 5% CO2 Human Breast Cancer cell line, MCF-7 (passage 16 to 26, ATCC, USA) was grown in Eagle's minimum essential medium containing 2mM L-glutamine, 100U/ ml penicillin,100µg/ ml streptomycin, FBS (10%), 1mM sodium pyruvate and 1% (v/v) non essential amino acids at 37°C in a humidified atmosphere with 5% CO2 Human prostate cancer cell line, DU145 (passage 12 to 29, ATCC, USA) was grown in Eagle's minimum essential medium containing 2mM L-glutamine, 100U/ ml penicillin, 100µg/ ml streptomycin, FBS (10%), 1mM sodium pyruvate and 1% (v/v) non essential amino acids at 37°C in a humidified atmosphere with 5% CO2. All drugs were tested by MTT assay following 24-hour exposure of cells to each compound. Each value represents the mean IC50 of three independent experiments +/- standard error.
(§2) MTT Assay. This method is based on the reduction of the tetrazolium salt, methylthiazolyldiphenyl-tetrazolium bromide (MTT) into a crystalline blue formazan product by the cellular oxidoreductases of viable cells. The resultant formazan crystal formation is proportional to the number of viable cells. Cells were seeded at 4x 10^5 cells/ml in 96-well plates and incubated at 37°C in 5% CO2 for 24 hours. Cells were treated with a four log range of concentration of the test compounds in triplicate from 0.1 to 500 µM or with a solvent control (0.5% DMSO) in complete medium. Following 24 h incubation, cells were incubated with 20 µl of MTT (5 mg/ml) in 0.1 M PBS, pH 7.4 at 37 °C in a humid atmosphere with 5% CO2 for 4 h. Media was then gently aspirated from test cultures and 100 µL of dimethyl sulphoxide (DMSO) was added to all wells. The plates were then shaken for 2 min and the absorbance was read at 550 nm in a Varioscan plate reader. The IC50 was defined as the concentration of test compound required to reduce the absorbance of the MTT-formazan crystals by 50%, indicating 50% cell deactivation.

HT29 [1] = test: MTT cytotoxicity assay, complexes 1-6; format: cell-based, Human; details: 24 hr exposure, mean of three independent experiments +/- standard error
Protocol: as §1, §2

DU145 = test: MTT cytotoxicity assay, complexes 1-6; format: cell-based, Human; details: 24 hr exposure, mean of three independent experiments +/- standard error
Protocol: as §1, §2

SK-OV-3 = test: MTT cytotoxicity assay, complexes 1-6; format: cell-based, Human; details: SK-OV-3 ovarian cancer, 24 hr exposure, mean of three independent experiments +/- standard error
Protocol: as §2
Cu(II) bis-phen complexes 4-6 display rapid, low micomolar toxicities against all tumor lines. […] It should be noted that 6 is dinuclear and so contains two active copper units, which may explain this heightened potency.

CT-DNA = test: Competitive ethidium bromide displacement; format: binding, calf; details: 1.2 µM EtBr, 1 µM CT-DNAp, pH 7.0; for Kapp (apparent binding constant): Kapp = Ke x 1.26/C50 where Ke = 9.5 x 10^6 M(bp)^-1; for IC50: final volume 2 mL, 10 mM TES, 0.1 mM Na2EDTA, read-out: C50 = concentration required to reduce fluorescence by 50%
Protocol: Competitive Ethidium Displacement. […] Complexes 4-6, actinomycin D, pentamidine isethionate were prepared at 2.0 mM in DMSO. Two millilitres of DNA-Et solution were placed in a 10-mm quartz cuvet (3 mL) and positioned in a temperature controlled (20°C) spectrofluorometer (Perkin Elmer LS55B Luminescence Spectrometer). Excitation and emission wavelengths were set to 546 and 595 nm, respectively. After thermal equilibrium was established the emission and excitation slits were modified to give a fluorescence reading of 50 arbitrary units with measurements being recorded over a 20-s interval. An aliquot of complex or drug solution was taken (0.5 - 10 µL), was added to the cuvette and after equilibration the fluorescence reading was recorded. Repeated aliquots were added until the fluorescence was 20-40% of the initial control. Triplicate titrations were preformed and the apparent binding constants were calculated using Kapp = Ke x 1.26/C50 where Ke = 9.5 x 10^6 M(bp)^-1.

poly[d(A-T)]2 = test: DNA-ethidium fluorescence quenching; format: binding; details: Q = equivalent concentration required to reduce fluorescence by 50%; 2.0 µM EtBr, 20 µM DNAp, 2 mM NaOAc buffer, 9.3 mM NaCl, pH 5.0
Protocol: (§3) DNA-Ethidium Fluorescence Quenching. Working solutions containing 20 µM poly[d(AT)]2 (ε260 = 13,100 M(bp)^-1 cm^-1), poly[d(G-C)]2 (ε260 = 16,800 M(bp)^-1 cm^-1) and CT-DNAp (ε260 = 12,824 M(bp)^-1 cm^-1) along with 2.0 µM Et in NaOAc buffer (2 mM NaOAc, 9.3 mM NaCl, 0.1 mM Na2EDTA, pH = 5.0) were prepared. Subsequent experimental steps are identical to the displacement experiment with the exception that a fluorescence reading of 200 arbitrary units with measurements being recorded over a 20-s interval was used. From a plot of the fluorescence vs added drug concentration, the Q values is given by the concentration required to effect 50% removal of the initial fluorescence.

poly[d(G-C)]2 = test: DNA-ethidium fluorescence quenching; format: binding; details: Q = equivalent concentration required to reduce fluorescence by 50%; 2.0 µM EtBr, 20 µM DNAp, 2 mM NaOAc buffer, 9.3 mM NaCl, pH 5.0
Protocol: as §3

[2] = Solubility in organic solvents; details: DMSO/DMF
SW620 = test: MTT cytotoxicity assay, complex 7; format: cell-based; details: SW620 (Dukes' C) colon cancer line, 24 hr
Protocol: (§4) For cytotoxicity evaluation HT29, SW480 and SW620 cell lines were employed; all the cell lines were grown in RPMI 1640 media (Fischer). All media were supplemented with 10% foetal bovine serum (FBS) and 45 IU/ml penicillin and 45 µg/ml streptomycin and cells were maintained at 37 °C in a 5% CO2 humidified incubator.
(§5) For sterilisation samples were filtered with a 0.2 micron cellulose acetate filter. For cytotoxicological evaluation all samples were prepared fresh on the day of exposure. A stock concentration of test compound was prepared in the exposure media (10% DMEM F-12) necessary for the cell line under test. This sample was vortexed to ensure a uniform dispersion of the compound under test.
(§6) For cytotoxicity assays cells were seeded in 96-well microplates (Nunc, Denmark) at a density of 1 x 10^5 cells/ml for the 24 hr test, 5 x10^4 cells/ml for the 48 hr test and 3 x 10^4 cells/ml for the 96 hr test. […] After 24 h of cell attachment, plates were washed with 100 µl/well phosphate buffered saline (PBS) and the cells were treated with increasing concentrations of each compound for 24 h. Six replicate wells were used for each control and test concentration per microplate. Following the desired time of compound exposure, control medium or test exposures were removed, the cells were rinsed with PBS and 100 µl of fresh medium (without FBS or supplements) was added to each well. 10 µl of MTT (5 mg/ml) prepared in PBS was then added to each well and the plates were incubated for 3 h at 37°C in a 5% CO2 humidified incubator. After this incubation period the medium was discarded, the cells were washed with 100 µl of PBS and 100 µl of DMSO was added to each well to extract the dye. The plate was shaken at 240 rpm for 10 min and the absorbance was measured at 570 nm.
(§7) At least three independent experiments were conducted in triplicate for each cell line and toxicity endpoint. […] Control values were set as 100%. Differences between samples and the control were evaluated using the statistical analysis package SPSS 14.0. Statistically significant differences were set at p≤0.05.

SW480 = test: MTT cytotoxicity assay, complex 7; format: cell-based; details: SW480 (Dukes' B) colon cancer line, 24 hr
Protocol: as §4, §5, §6, §7

HT29 [3] = test: MTT cytotoxicity assay, complex 7; format: cell-based, Human; details: HT29 colon cancer line, 24 hr
Protocol: as §4, §5
For cytotoxicity assays cells were seeded in 96-well microplates (Nunc, Denmark) at a density of 1 x 10^5 cells/ml for the 24 hr test, 5 x10^4 cells/ml for the 48 hr test and 3 x 10^4 cells/ml for the 96 hr test. […] After 24 h of cell attachment, plates were washed with 100 µl/well phosphate buffered saline (PBS) and the cells were treated with increasing concentrations of each compound for 24 h. […] The plate was shaken at 240 rpm for 10 min and the absorbance was measured at 570 nm.
At least three independent experiments were conducted in triplicate for each cell line and toxicity endpoint. […] Differences between samples and the control were evaluated using the statistical analysis package SPSS 14.0. […]

[4] = Homo sapiens, MCF7, MCF-7 breast cancer
[5] = Homo sapiens, HT-29, HT29 colon cancer
[6] = Homo sapiens, DU-145, DU145 prostate cancer

Row | Molecule | IC50 (MCF-7; MCF-7 breast cancer) | IC50 (HT29 [1]; HT29 colon cancer) | IC50 (DU145; DU145 prostate cancer) | IC50 (SK-OV-3) | Kapp (apparent binding constant) (CT-DNA) | IC50 (CT-DNA) | IC50 (poly[d(A-T)]2) | IC50 (poly[d(G-C)]2) | IC50 (MCF-7; [4]) | IC50 (HT29 [1]; [5]) | IC50 (DU145; [6]) | IC50 (SK-OV-3; Homo sapiens) | other results
1 | N.N.[Cl][Pt][Cl] [Cisplatin, reference compound] | 90.8 ± 3.5 µM | 349 ± 80.6 µM | > 500 µM | > 500 µM |  |  |  |  |  |  |  |  | 
2 | O.O.O.O.O.O=C([O-])c1cccc(C(=O)[O-])c1.[Cu+2].c1cnc2c(c1)ccc1cccnc12.c1cnc2c(c1)ccc1cccnc12 [Complex 5, [Cu(isoph)(phen)2]5H2O] | 41.2 ± 1.4 µM | 5.8 ± 0.2 µM | 10.6 ± 2.2 µM | 6.6 ± 0.4 µM | 1.20x10^5 M(bp)^-1 | 99.8 µM | 20.9 µM | 37.3 µM |  |  |  |  | Solubility [2]: DMSO/DMF
3 | Cc1c2oc3c(C)ccc(C(=O)NC4C(=O)NC(C(C)C)C(=O)N5CCCC5C(=O)N(C)CC(=O)N(C)C(C(C)C)C(=O)OC4C)c3nc-2c(C(=O)NC2C(=O)NC(C(C)C)C(=O)N3CCCC3C(=O)N(C)CC(=O)N(C)C(C(C)C)C(=O)OC2C)c(N)c1=O (stereo not drawn) [actinomycin D, reference compound] (I: TVP[Sar][NMeV] / II: TVP[Sar][NMeV]; ester I:1-I:C, II:1-II:C; linker I:N-II:N via Actinocin(9to1); configuration not given here) |  |  |  |  | 9.69 x 10^5 M(bp)^-1 | 12.3 µM | 314 µM | 4.25 µM |  |  |  |  | 
4 | O=C(O)c1cccc(C(=O)O)c1 [isophH2, isophthalic acid, reference compound] |  |  |  |  |  |  |  |  | > 500 µM | > 500 µM | > 500 µM | > 500 µM | 
5 | O=C1c2c(O)ccc(O)c2C(=O)c2c(NCCNCCO)ccc(NCCNCCO)c21 [mitoxantrone, reference compound] |  |  |  |  |  |  |  |  | 7.5 ± 0.2 µM | 8 ± 0.6 µM | 27.3 ± 5.6 µM | 54.5 ± 2.6 µM | 
6 | N=C(N)c1ccc(OCCCCCOc2ccc(C(=N)N)cc2)cc1 [pentamidine, reference compound] |  |  |  |  | 6.07x10^5 M(bp)^-1 | 19.7 µM | 44.9 µM | 203 µM |  |  |  |  | 
7 | O=C(O)c1ccccc1C(=O)O [phH2, phthalic acid, reference compound] |  |  |  |  |  |  |  |  | > 500 µM | > 500 µM | > 500 µM | > 500 µM | 
8 | c1cnc2c(c1)ccc1cccnc12 [phen, 1,10-phenanthroline] |  |  |  |  |  |  |  |  | 338 ± 64.7 µM | 377 ± 9.2 µM | 272 ± 8 µM | 286 ± 28.5 µM | Activity LD50 (SW620): >100 µM; Activity LD50 (SW480): >100 µM; Activity LD50 (HT29 [3]): >100 µM
9 | O=C(O)c1ccc(C(=O)O)cc1 [terphH2, terephthalic acid, reference compound] |  |  |  |  |  |  |  |  | > 500 µM | > 500 µM | > 500 µM | > 500 µM | 
10 | [Cu(ph)(phen)2]8H2O [Complex 4] | 44.9 ± 7 µM | 6 ± 0.4 µM | 11.6 ± 4.5 µM | 6.7 ± 0.4 µM | 1.21x10^5 M(bp)^-1 | 99.1 µM | 26.2 µM | 69.8 µM |  |  |  |  | Solubility [2]: forms only suspensions in DMSO/DMF
11 | {[Cu(isoph)(H2O)3]2H2O}n [Complex 2] | 401 ± 54.1 µM | > 500 µM | 422 ± 22.4 µM | 436 ± 29.4 µM |  |  |  |  |  |  |  |  | Solubility [2]: DMSO/DMF
12 | {[Cu(ph)(H2O)]}n [Complex 1] | > 500 µM | > 500 µM | > 500 µM | > 500 µM |  |  |  |  |  |  |  |  | 
13 | {[Cu(tereph)(H2O)3]2H2O}n [Complex 3] | 414 ± 26 µM | > 500 µM | > 500 µM | > 500 µM |  |  |  |  |  |  |  |  | 
